The record followed here is patent publication US20150259331A1, “PROTOZOAN PARASITE GROWTH INHIBITORS” (Northeastern University, priority 2014, published 2015).

The term fraction unbound denotes free concentration divided by total concentration. Lower therefore signals extensive binding. Broadly, the EC50 is the concentration that produces a half-maximal response. For orientation: Solubility means the dissolved amount per volume that the medium holds. A low value points to little dissolved substance. As a reminder, the logD is lipophilicity at a set pH, counting ionised and neutral species. Read a low logD as a more hydrophilic compound.

Like-named read-outs stand apart in the source and are kept apart here.

Series [1] can be described thus: Protein binding (Table 14). The conditions noted are these: plasma.
The test system of series [2] is P. fal. The experiment in a line: P. fal assay of Table 13 (strain not given). The format is cell-based, P. falciparum.
Series [3] in a line: Thermodynamic aqueous solubility. The format is physicochemical.
The test system of series [4] is L. major promastigote. Nature of the series: L. major promastigote assay. The format is cell-based.
For series [5], the system named is HepG2 cells. Nature of the series: HepG2 cell toxicity (MTT) assay. The format is cell-based. To be noted: Table 13; read-out: HepG2 TC50.
The nature of series [6]: Male rat hepatocytes CLint.
Series [7] concerns T. brucei brucei Lister 427. Nature of the series: Trypanosome replication assay. The class given is cell-based, Trypanosoma brucei brucei. To be noted: 48 h, concentration giving 50% inhibition of growth of T brucei brucei Lister 427 cells, 48 h, values ±7%, read-out: Tbb EC50.
Series [8] concerns L. major amastigote. The experiment in a line: L. major amastigote assay. The class given is cell-based.
Series [9] in a line: Human liver microsomes CLint. (Liver microsomes are vesicles of endoplasmic reticulum, rich in cytochrome P450 enzymes.)
The test system of series [10] is T. cruzi. Nature of the series: T. cruzi growth inhibition. The class given is cell-based, Trypanosoma cruzi.
Series [11] is described as follows: logD. The format is physicochemical.
Assay in series [12]: not given
This is another data set of the same source.

As for `O=S(=O)(c1ccc(-c2ccc3nccc(Nc4ccc(OCc5ccccc5)c(Cl)c4)c3c2)cc1)N1CCOCC1` [NEU-945, N-(4-(Benzyloxy)-3-chlorophenyl)-6-(4-(morpholinosulfonyl)phenyl)quinolin-4-amine], the free fraction (fraction unbound) in [1] is less than 0.01. Further, the EC50 was 32 nM in series [2] (Plasmodium falciparum); 200 nM in series [4] (Leishmania major); 2100 nM in series [7] (Trypanosoma brucei); greater than 3000 nM in series [8] (Leishmania major); 49000 nM in [10] (Trypanosoma cruzi). This compound also showed a Solubility in [3] of less than 1 µM. Besides, the CC50 in [5] was greater than 5000 nM. For the same compound, the “Male rat hepatocytes median CLint” value in series [6] came out at 13.93 μl/min/1E6 cells. Also, the “Human liver microsomes median CLint” value in series [9] was 78.87 µL/min/mg. In series [11], this compound displayed a logD of 3.5.

Turning to `CN1CCCN(S(=O)(=O)c2ccc(-c3ccc4ncc(C#N)c(Nc5ccc(OCc6cccc(F)c6)c(Cl)c5)c4c3)cc2)CC1` [NEU-924], the “Male rat hepatocytes median CLint” value was 37.95 μl/min/1E6 cells. This compound showed an EC50 in series [2] of 47 nM. The “Human liver microsomes median CLint” value in [12] came to 151.8 µL/min/mg. In series [4], this compound displayed an EC50 of 920 nM. The CC50 in series [5] was greater than 15000 nM. Besides, in [7], the concentration giving a half-maximal response (EC50) turned out to be 350 nM. The compound also registered a concentration for a half-maximal effect (EC50) in [8] of 1600 nM. Further, the EC50 in series [10] amounted to 90 nM.
